Measured values from patent publication US9593108B2, “Compounds and methods for antiviral treatment” (PTC Therapeutics, Inc., priority 2009, dated 2017).

Experiments:
[1] = tested on: HCV replicon RNA (GenBank Accession No. AJ242654); assay: HCV Replicon Assay (replicon RNA reduction and/or Fluc reporter signal); assay type: cell-based, Hepatitis C virus; conditions: Hepatitis C virus, 72 h, replicon-containing cells cultured with test compound for up to 3 days
Summary of the method: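 Bicistronic replicon-containing cells cultured with compound for up to 3 days, with interferon as positive control. Inhibition quantified by replicon RNA reduction and/or Fluc reporter signal; IC50 values generally derived from replicon RNA reduction.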

## Cc1cc2c(cn1)c(C#N)c(-c1ccc(S(=O)(=O)N[C@H](C)C(F)(F)F)cc1)n2C1CCC1 [Cpd 31, 4-(3-cyano-1-cyclobutyl-6-methyl-1H-pyrrolo[3,2-c]pyridin-2-yl)-N-[(2R)-1,1,1-trifluoropropan-2-yl]benzenesulfonamide]
other
  melting point: 247 to 249 °C
[1]
  IC50: < 500 nM

## Cc1cc2c(cn1)c(C#N)c(-c1ncc(S(=O)(=O)NC(C)C)cn1)n2C1CCC1 [Cpd 32, 2-(3-cyano-1-cyclobutyl-6-methyl-1H-pyrrolo[3,2-c]pyridin-2-yl)-N-(propan-2-yl)pyrimidine-5-sulfonamide]
other
  melting point: 242 to 243 °C
[1]
  IC50: < 500 nM

## Cc1cc2c(cn1)c(C#N)c(-c1ccc(S(=O)(=O)NC(CF)CF)cc1)n2C1CCC1 [Cpd 33, 4-(3-cyano-1-cyclobutyl-6-methyl-1H-pyrrolo[3,2-c]pyridin-2-yl)-N-(1,3-difluoropropan-2-yl)benzenesulfonamide]
other
  melting point: 234 to 236 °C
[1]
  IC50: < 500 nM

## N#Cc1c(-c2ccc(S(=O)(=O)NC(CF)CF)cc2)n(C2CCC2)c2ncccc12 [Cpd 34, 4-(3-cyano-1-cyclobutyl-1H-pyrrolo[2,3-b]pyridin-2-yl)-N-(1,3-difluoropropan-2-yl)benzenesulfonamide]
other
  melting point: 180 to 182 °C
[1]
  IC50: < 500 nM

## C[C@@H](NS(=O)(=O)c1ccc(-c2c(C#N)c3cccnc3n2C2CCC2)nc1)C(F)(F)F [Cpd 35, 6-(3-cyano-1-cyclobutyl-1H-pyrrolo[2,3-b]pyridin-2-yl)-N-[(2R)-1,1,1-trifluoropropan-2-yl]pyridine-3-sulfonamide]
other
  melting point: 184 to 186 °C
[1]
  IC50: < 500 nM

## CC(C)NS(=O)(=O)c1cnc(-c2c(C#N)c3cccnc3n2C2CCC2)nc1 [Cpd 36, 2-(3-cyano-1-cyclobutyl-1H-pyrrolo[2,3-b]pyridin-2-yl)-N-(propan-2-yl)pyrimidine-5-sulfonamide]
other
  melting point: 197 to 199 °C
[1]
  IC50: < 500 nM

## CC(C)NS(=O)(=O)c1cnc(-c2c(C#N)c3cc(F)cnc3n2C2CCC2)nc1 [Cpd 37, 2-(3-cyano-1-cyclobutyl-5-fluoro-1H-pyrrolo[2,3-b]pyridin-2-yl)-N-(propan-2-yl)pyrimidine-5-sulfonamide]
other
  melting point: 207 to 209 °C
[1]
  IC50: < 500 nM

## COc1ccc2c(C#N)c(-c3ccc(S(=O)(=O)N[C@@H](C)C(F)(F)F)cn3)n(C3CCC3)c2n1 [Cpd 40, 6-(3-cyano-1-cyclobutyl-6-methoxy-1H-pyrrolo[2,3-b]pyridin-2-yl)-N-[(2S)-1,1,1-trifluoropropan-2-yl]pyridine-3-sulfonamide]
other
  melting point: 193 to 194 °C
[1]
  IC50: 500 to 2000 nM

## COc1ccc2c(C#N)c(-c3ccc(S(=O)(=O)NC(CF)CF)cn3)n(C3CCC3)c2n1 [Cpd 41, 6-(3-cyano-1-cyclobutyl-6-methoxy-1H-pyrrolo[2,3-b]pyridin-2-yl)-N-(1,3-difluoropropan-2-yl)pyridine-3-sulfonamide]
other
  melting point: 194 to 195 °C
[1]
  IC50: < 500 nM

## COc1ccc2c(C#N)c(-c3ncc(S(=O)(=O)NC(CF)CF)cn3)n(C3CCC3)c2n1 [Cpd 42, 2-(3-cyano-1-cyclobutyl-6-methoxy-1H-pyrrolo[2,3-b]pyridin-2-yl)-N-(1,3-difluoropropan-2-yl)pyrimidine-5-sulfonamide]
other
  melting point: 229 to 230 °C
[1]
  IC50: < 500 nM

## COc1ccc2c(C#N)c(-c3ccc(S(=O)(=O)NC(C)(C)C)cc3)n(C3CCC3)c2n1 [Cpd 44, N-tert-butyl-4-(3-cyano-1-cyclobutyl-6-methoxy-1H-pyrrolo[2,3-b]pyridin-2-yl)benzenesulfonamide]
other
  melting point: 155 to 157 °C
[1]
  IC50: < 500 nM

## Cc1ncc2c(C#N)c(-c3ccc(S(=O)(=O)N[C@@H](C)C4CC4)cn3)n(C3CCC3)c2n1 [Cpd 45, 6-(5-cyano-7-cyclobutyl-2-methyl-7H-pyrrolo[2,3-d]pyrimidin-6-yl)-N-[(1S)-1-cyclopropylethyl]pyridine-3-sulfonamide]
other
  melting point: 155 to 157 °C
[1]
  IC50: < 500 nM

## Cc1ncc2c(C#N)c(-c3ccc(S(=O)(=O)N[C@H](C)C(F)(F)F)cn3)n(C3CCC3)c2n1 [Cpd 46, 6-(5-cyano-7-cyclobutyl-2-methyl-7H-pyrrolo[2,3-d]pyrimidin-6-yl)-N-[(2R)-1,1,1-trifluoropropan-2-yl]pyridine-3-sulfonamide]
other
  melting point: 166 to 168 °C
[1]
  IC50: < 500 nM

## C[C@@H](NS(=O)(=O)c1ccc(-c2c(C#N)c3cc(F)cnc3n2C2CCC2)nc1)C(F)(F)F [Cpd 47, 6-(3-cyano-1-cyclobutyl-5-fluoro-1H-pyrrolo[2,3-b]pyridin-2-yl)-N-[(2R)-1,1,1-trifluoropropan-2-yl]pyridine-3-sulfonamide]
other
  melting point: 167 to 169 °C
[1]
  IC50: < 500 nM

## COc1cnc2c(c1)c(C#N)c(-c1ncc(S(=O)(=O)NC(C)C)cn1)n2C1CCC1 [Cpd 49, 2-(3-cyano-1-cyclobutyl-5-methoxy-1H-pyrrolo[2,3-b]pyridin-2-yl)-N-(propan-2-yl)pyrimidine-5-sulfonamide]
other
  melting point: 215 to 217 °C
[1]
  IC50: < 500 nM

## C[C@@H](NS(=O)(=O)c1ccc(-c2c(C#N)c3cc(Cl)cnc3n2C2CCC2)nc1)C(F)(F)F [Cpd 50, 6-(5-chloro-3-cyano-1-cyclobutyl-1H-pyrrolo[2,3-b]pyridin-2-yl)-N-[(2R)-1,1,1-trifluoropropan-2-yl]pyridine-3-sulfonamide]
other
  melting point: 202 to 203 °C
[1]
  IC50: < 500 nM

## C[C@H](NS(=O)(=O)c1ccc(-c2c(C#N)c3cc(Cl)cnc3n2C2CCC2)nc1)C(F)(F)F [Cpd 51, 6-(5-chloro-3-cyano-1-cyclobutyl-1H-pyrrolo[2,3-b]pyridin-2-yl)-N-[(2S)-1,1,1-trifluoropropan-2-yl]pyridine-3-sulfonamide]
other
  melting point: 203 to 204 °C
[1]
  IC50: < 500 nM

## CC(C)(C)NS(=O)(=O)c1ccc(-c2c(C#N)c3cc(Cl)cnc3n2C2CCC2)nc1 [Cpd 52, N-tert-butyl-6-(5-chloro-3-cyano-1-cyclobutyl-1H-pyrrolo[2,3-b]pyridin-2-yl)pyridine-3-sulfonamide]
other
  melting point: 207 to 208 °C
[1]
  IC50: < 500 nM

## Cc1ncc2c(C#N)c(-c3ccc(S(=O)(=O)NC(C)(C)C(F)(F)F)cc3)n(C3CCC3)c2n1 [Cpd 53, 4-(5-cyano-7-cyclobutyl-2-methyl-7H-pyrrolo[2,3-d]pyrimidin-6-yl)-N-(1,1,1-trifluoro-2-methylpropan-2-yl)benzenesulfonamide]
other
  melting point: 211 to 214 °C
[1]
  IC50: < 500 nM

## C[C@H](NS(=O)(=O)c1ccc(-c2c(C#N)c3ccc(OC(F)F)nc3n2C2CCC2)nc1)C(F)(F)F [Cpd 54, 6-[3-cyano-1-cyclobutyl-6-(difluoromethoxy)-1H-pyrrolo[2,3-b]pyridin-2-yl]-N-[(2S)-1,1,1-trifluoropropan-2-yl]pyridine-3-sulfonamide]
other
  melting point: 176 to 177 °C
[1]
  IC50: < 500 nM

## N#Cc1c(-c2ncc(S(=O)(=O)NC(CF)CF)cn2)n(C2CCC2)c2nc(OC(F)F)ccc12 [Cpd 55, 2-[3-cyano-1-cyclobutyl-6-(difluoromethoxy)-1H-pyrrolo[2,3-b]pyridin-2-yl]-N-(1,3-difluoropropan-2-yl)pyrimidine-5-sulfonamide]
other
  melting point: 234 to 236 °C
[1]
  IC50: < 500 nM

## CC(C)(NS(=O)(=O)c1ccc(-c2c(C#N)c3cc(Cl)cnc3n2C2CCC2)nc1)C(F)(F)F [Cpd 56, 6-(5-chloro-3-cyano-1-cyclobutyl-1H-pyrrolo[2,3-b]pyridin-2-yl)-N-(1,1,1-trifluoro-2-methylpropan-2-yl)pyridine-3-sulfonamide]
other
  melting point: 221 to 222 °C
[1]
  IC50: < 500 nM

## N#Cc1c(-c2ccc(S(=O)(=O)NC3(C(F)(F)F)CC3)cn2)n(C2CCC2)c2ncc(Cl)cc12 [Cpd 57, 6-(5-chloro-3-cyano-1-cyclobutyl-1H-pyrrolo[2,3-b]pyridin-2-yl)-N-[1-(trifluoromethyl)cyclopropyl]pyridine-3-sulfonamide]
other
  melting point: 254 to 255 °C
[1]
  IC50: < 500 nM

## CC(C)NS(=O)(=O)c1cnc(-c2c(C#N)c3cc(Cl)cnc3n2C2CCC2)nc1 [Cpd 58, 2-(5-chloro-3-cyano-1-cyclobutyl-1H-pyrrolo[2,3-b]pyridin-2-yl)-N-(propan-2-yl)pyrimidine-5-sulfonamide]
other
  melting point: 224 to 225 °C
[1]
  IC50: < 500 nM

## C[C@@H](NS(=O)(=O)c1ccc(-c2c(C#N)c3cc(Cl)cnc3n2CC2CC2)nc1)C(F)(F)F [Cpd 59, 6-[5-chloro-3-cyano-1-(cyclopropylmethyl)-1H-pyrrolo[2,3-b]pyridin-2-yl]-N-[(2R)-1,1,1-trifluoropropan-2-yl]pyridine-3-sulfonamide]
other
  melting point: 224 to 226 °C
[1]
  IC50: 500 to 2000 nM

## C[C@@H](NS(=O)(=O)c1ccc(-c2c(C#N)c3cc(F)cnc3n2CC2CC2)nc1)C(F)(F)F [Cpd 60, 6-[3-cyano-1-(cyclopropylmethyl)-5-fluoro-1H-pyrrolo[2,3-b]pyridin-2-yl]-N-[(2R)-1,1,1-trifluoropropan-2-yl]pyridine-3-sulfonamide]
other
  melting point: 185 to 187 °C
[1]
  IC50: < 500 nM

## C[C@H](NS(=O)(=O)c1ccc(-c2c(C#N)c3cc(Cl)cnc3n2C2CCC2)cc1)C(F)(F)F [Cpd 61, 4-(5-chloro-3-cyano-1-cyclobutyl-1H-pyrrolo[2,3-b]pyridin-2-yl)-N-[(2S)-1,1,1-trifluoropropan-2-yl]benzenesulfonamide]
other
  melting point: 220 to 222 °C
[1]
  IC50: < 500 nM

## C[C@H](NS(=O)(=O)c1ccc(-c2c(C#N)c3cnc(OC(F)F)nc3n2C2CCC2)nc1)C(F)(F)F [Cpd 62, 6-[5-cyano-7-cyclobutyl-2-(difluoromethoxy)-7H-pyrrolo[2,3-d]pyrimidin-6-yl]-N-[(2S)-1,1,1-trifluoropropan-2-yl]pyridine-3-sulfonamide]
other
  melting point: 172 to 174 °C
[1]
  IC50: < 500 nM
